Data from patent publication US20080214521A1, “Sensitization of Drug-Resistant Lung Caners to Protein Kinase Inhibitors” (priority 2005, published 2008).

Columns and labels:
NCI-H1299 cells = assay: Drug synergy analysis, PKC412 with etoposide (VP16), sub-G1 flow cytometry
A549 cells = assay: as above; format: cell-based
Description: (§1) All other drugs were purchased from Sigma.
(§2) After 48 hours, the fraction of cells with subdiploid DNA content (sub-G1) was quantified by flow cytometry. DMSO-treated cells (white bars) served as negative controls.

NCI-H460 cells = assay: as above; format: cell-based; conditions: simultaneous 25 μM etoposide and escalating PKC412 (0-100 μM), 48 hours
Description: as §1, §2

lung cancer xenograft = conditions: mouse, in vivo; cited from earlier work
cancer cell lines = conditions: cited from earlier work
[1] = phase I study, cited from earlier work
[2] = system: NSCLC cell lines expressing BAK under the control of a tetracycline-regulated promoter; assay: Apoptosis induced by PKC inhibitors with conditional BAK expression (DOX), sub-G1 / TMRE / caspase cleavage immunoblot; format: cell-based; conditions: drug-resistant NSCLC cells (A549, NCI-H1299), 48 hours
Description: NSCLC cell lines known in the art were obtained. Unless otherwise specified, NSCLC cells were grown on tissue culture dishes (BD Falcon) in Dulbecco's Modified Eagle Medium supplemented with 10% fetal bovine serum, glucose, L-glutamine and penicillin/streptomycin in a humidified atmosphere at 5% CO2. NSCLC cells conditionally expressing transgenic BAK were obtained using the BD RevTet-On vector system (BD Clontech). A BamHI fragment encoding the full length human BAK cDNA was generated by PCR, confirmed by sequencing, and cloned into the pRevTRE vector. A retroviral BCL-XL expression vector has been described previously (26). Replication-defective retroviral virions were produced by standard calcium phosphate transfection in the FNX ampho packaging cell line (a gift from Dr G. P. Nolan, Stanford). Transductions were performed using filtered supernatants, and populations were selected with hygromycin B and puromycin in the absence of tetracycline, or were obtained by fluorescence activated cell sorting (Coulter) of EGFP-positive cells. […]
Cells with subdiploid DNA content (sub-G1) were quantified by flow cytometry after 48 hours. […] Cells that maintained Δψm (TMRE+) were quantified by TMRE-staining and flow cytometry after 48 hours. […] Whole cell extracts were obtained at 24 hours, and the cleavage of caspase-9, caspase-3 and the caspase substrate PARP was detected by immunoblotting.

NCI-H1299 = assay: Cell cycle distribution by flow cytometry; format: cell-based; conditions: 50 μM PKC412, 24 hours
[3] = system: phosphorylation of protein kinase B/AKT and glycogen synthase kinase 3-beta; assay: Immunoblotting of downstream targets of PKC signal transduction after PMA stimulation; format: cell-based; conditions: drug-resistant and drug-sensitive cell lines; PKC412 1 to 10 μM for 2 hours, then PMA 1 μM 10 minutes
Description: Immunoblotting and cell fractionation was performed as described previously (38, 39) using primary antibodies against caspase-9 (Chemicon), caspase-3, BCL-XL, cytochrome c (BD Pharmingen), BAX, BAK, PARP (Upstate), AKT, phospho-AKT, GSK-3beta, phospho-GSK3beta (Cell Signaling), and actin (ICN).

[4] = system: NSCLC cells expressing BAK under the control of a tetracycline-regulated promoter; assay: Apoptosis facilitated by conditionally expressed transgenic BAK; format: cell-based; conditions: BAK induced by DOX; data not shown
[5] = simultaneous 25 μM etoposide and escalating PKC412 (0-100 μM), 48 hours

Molecule | apoptosis induced by VP16 given subsequently to PKC412 (NCI-H1299 cells; 50 μM PKC412 24 hours, then 25 μM etoposide another 24 hours) | effect of PKC412 on VP16-induced apoptosis (NCI-H1299 cells; [5]) | apoptosis after PKC412 pre-treatment versus VP16 pre-treatment (A549 cells; 50 μM PKC412 and 25 μM etoposide, sequential, 24 hours each) | cytotoxicity of combined treatment with PKC412 and VP16 (A549 cells; [5]) | apoptosis with PKC412 plus VP16 compared to VP16 alone (NCI-H460 cells) | effects in murine xenograft model of lung cancer (lung cancer xenograft) | effect on cancer cell lines (cancer cell lines) | safety of combination with CDDP/gemcitabine ([1]; patients with advanced NSCLC, with standard cytotoxic regimen of CDDP/gemcitabine) | safety and feasibility of oral administration ([1]; patients with advanced cancers, oral) | sensitisation to PKC412-mediated apoptosis by inducible expression of BAK [2] | cell cycle distribution after pre-treatment with PKC412 (NCI-H1299) | phosphorylation of downstream targets of PKC signal transduction (AKT, GSK-3beta) [3] | effect on apoptosis facilitated by transgenic BAK [4]
CO[C@@H]1[C@H](N(C)C(=O)c2ccccc2)C[C@H]2O[C@]1(C)n1c3ccccc3c3c4c(c5c6ccccc6n2c5c31)C(=O)NC4 [PKC412, N-[(9S,10R,11R,13R)-2,3,10,11,12,13-hexahydro-10-methoxy-9-methyl-1-oxo-9,13-epoxy-1H,9H-diindolo[1,2,3-gh:3′,2′,1′-Im]pyrrolo[3,4j][1,7]benzodiazonin-11-yl]-N-methylbenzamide] | reduced the amount of apoptosis | protected NCI-H1299 cells against VP16-induced apoptosis | did not significantly differ | additive cytotoxicity | no further increase in apoptosis | antitumoral and antiangiogenic effects | induced cell cycle arrest or apoptosis | established | safe and feasible | Sensitized | cell cycle arrest in the G2/M-phase | effectively reduced | –
CN[C@@H]1C[C@H]2O[C@@](C)([C@@H]1OC)n1c3ccccc3c3c4c(c5c6ccccc6n2c5c31)C(=O)NC4 [staurosporine] | – | – | – | – | – | antitumoral and antiangiogenic effects | induced cell cycle arrest or apoptosis | – | – | – | – | – | –
zVAD-fmk | – | – | – | – | – | – | – | – | – | – | – | – | inhibited
